Data from PubChem BioAssay (NCI).
Where “and” joins values, the source holds several entries; their conditions need not be identical. Identical values can stand only once.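 Five compound concentrations were applied to cells in 96-well plates for 48 hours; endpoints were derived by simple linear interpolation of the resulting dose-response curve. GI50 marks 50% less growth. TGI marks complete inhibition of growth.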

Columns and labels:
Experiment in all cases: growth of human tumour cells (NCI), 48 h
[1] = system: COLO 205 colon
[2] = system: HCT-15 colon
[3] = system: HS 578T breast
[4] = system: NCI-H23 lung
[5] = system: PC-3 prostate
[6] = system: RPMI-8226 leukemia
[7] = system: SF-268 CNS
[8] = system: SR leukemia
[9] = system: SW-620 colon
[10] = system: UACC-62 melanoma

For O=C(NC(=S)Nc1ccc(-c2nc3ccccc3[nH]2)cc1)c1ccc2ccccc2c1, the GI50 [1] was 4.98 µM, the TGI [1] was 46.5 µM and the GI50 [2] was 3.15 µM. It also gave a TGI [2] of 50.1 µM, a GI50 [3] of 3.09 µM and a TGI [3] of 9.94 µM. For the same compound, the GI50 [4] was 17.8 µM, the TGI [4] was greater than 100 µM and the GI50 [5] was 3.26 µM. It also gave a TGI [5] of 35.5 µM, a GI50 [6] of 2.62 µM and a TGI [6] of 9.29 µM. It also gave a GI50 [7] greater than 100 µM, a TGI [7] greater than 100 µM and a GI50 [8] of 0.645 µM. For the same compound, the TGI [8] was 11.6 µM, the GI50 [9] was 4.2 µM and the TGI [9] was greater than 100 µM. The GI50 [10] was 4.06 µM and the TGI [10] was greater than 100 µM.
O=C1NC(=N[C@@H]2C[C@H]2c2ccccc2)S/C1=C\c1ccc2ncccc2c1 gave a GI50 [1] of 0.813 µM, a TGI [1] of 2.35 µM and a GI50 [2] of 0.74 µM. It also gave a TGI [2] greater than 25 µM, a GI50 [3] of 1.25 µM and a TGI [3] of 11.6 µM. It also gave a GI50 [4] of 3.87 µM, a TGI [4] of 20.8 µM and a GI50 [5] of 3.27 µM. For the same compound, the TGI [5] was 9.09 µM, the GI50 [6] was 1.28 µM and the TGI [6] was 7.52 µM. For the same compound, the GI50 [7] was 2.25 µM, the TGI [7] was 8.02 µM and the GI50 [8] was 0.646 µM. It also gave a TGI [8] of 3.27 µM, a GI50 [9] of 0.901 µM and a TGI [9] greater than 19.4 µM. It also gave a GI50 [10] of 1.2 µM and a TGI [10] of 5.61 µM.
Compound O=C(CSc1nc2ccc([N+](=O)[O-])cc2[nH]1)Nc1ccc([N+](=O)[O-])cc1 has a GI50 [2] of 2.93 µM, a TGI [2] of 17.6 µM and a GI50 [3] of 2.31 µM. The TGI [3] was 10.2 µM, the GI50 [4] was 2.14 µM and the TGI [4] was 9.51 µM. It also gave a GI50 [5] of 2.38 µM, a TGI [5] of 12.5 µM and a GI50 [6] of 1.27 µM. The TGI [6] was greater than 23.2 µM, the GI50 [7] was 2.72 µM and the TGI [7] was 14.5 µM. The GI50 [8] was 3.15 µM, the TGI [8] was greater than 46.4 µM and the GI50 [9] was 3.24 µM. It also gave a TGI [9] of 17.6 µM, a GI50 [10] of 1.36 µM and a TGI [10] of 7.52 µM.
Work on CCN1C2=C(SC(=S)C1=C1SC(C(=O)c3ccccc3)=C(C(=O)c3ccccc3)S1)SC(=Nc1ccccc1)C2=O yielded a GI50 [1] greater than 100 µM, a TGI [1] greater than 100 µM and a GI50 [2] greater than 100 µM. For the same compound, the TGI [2] was greater than 100 µM, the GI50 [3] was 2.58 µM and the TGI [3] was 72.9 µM. For the same compound, the GI50 [4] was 5.43 µM, the TGI [4] was greater than 100 µM and the GI50 [5] was 17.6 µM. It also gave a TGI [5] greater than 100 µM, a GI50 [6] of 2.13 µM and a TGI [6] greater than 100 µM. For the same compound, the GI50 [7] was 8.24 µM, the TGI [7] was greater than 100 µM and the GI50 [8] was 3.19 µM. For the same compound, the TGI [8] was greater than 100 µM, the GI50 [9] was 1.14 µM and the TGI [9] was 8.38 µM. For the same compound, the GI50 [10] was 12 µM and the TGI [10] was greater than 70.1 µM.
With CC(C)c1ccc2c(c1)CCC1C(C)(CN)CCCC21C (configuration not stated) the TGI [1] was 1.43 µM, the TGI [2] was 3.17 µM and the TGI [3] was 3.57 µM. It also gave a TGI [4] of 3.36 µM, a TGI [5] of 3.12 µM and a TGI [6] of 4.3 µM. For the same compound, the TGI [7] was 3.22 µM, the TGI [8] was 2.99 µM and the TGI [9] was 2.9 µM. The TGI [10] was 3.14 µM.
In the case of CO[C@@H]1[C@H](N(C)C(=O)c2ccccc2)C[C@@H]2O[C@]1(C)n1c3ccccc3c3c4c(c5c6ccccc6n2c5c31)C(=O)NC4=O, the GI50 [1] is reported as 0.398 µM, the TGI [1] is reported as greater than 100 µM and the GI50 [2] is reported as 0.766 µM. It also gave a TGI [2] greater than 100 µM, a GI50 [3] of 0.461 µM and a TGI [3] greater than 100 µM. It also gave a GI50 [4] of 0.842 µM, a TGI [4] greater than 100 µM and a GI50 [5] of 0.562 µM. The TGI [5] was greater than 100 µM, the GI50 [6] was greater than 100 µM and the TGI [6] was greater than 100 µM. For the same compound, the GI50 [7] was 0.763 µM, the TGI [7] was greater than 100 µM and the GI50 [8] was 0.504 µM. For the same compound, the TGI [8] was greater than 100 µM, the GI50 [9] was 0.732 µM and the TGI [9] was greater than 100 µM. It also gave a GI50 [10] of 0.54 µM and a TGI [10] greater than 100 µM.
In the case of COc1cccc(Nc2ncnn3ccc(CN4CC[C@@H](N)[C@H](O)C4)c23)c1, the GI50 [1] is reported as 3.73 µM and 3.13 µM, the TGI [1] is reported as 18.2 µM and > 6.18 µM and the GI50 [2] is reported as 3.24 µM and 2.15 µM. The TGI [2] was 97.9 µM and > 10 µM, the GI50 [3] was 0.698 µM and 0.395 µM and the TGI [3] was 5.18 µM and 2.69 µM. For the same compound, the GI50 [4] was 2.53 µM and 3.05 µM, the TGI [4] was 18.4 µM and > 10 µM and the GI50 [5] was 15.2 µM and > 2.39 µM. For the same compound, the TGI [5] was greater than 100 µM, the GI50 [6] was 20.9 µM and > 5.39 µM and the TGI [6] was 68 µM and > 10 µM. The GI50 [7] was 4.42 µM and 1.62 µM, the TGI [7] was 99.7 µM and > 6.67 µM and the GI50 [8] was 5.19 µM and > 4.99 µM. The TGI [8] was 40.7 µM and > 10 µM, the GI50 [9] was 17.7 µM and > 4.35 µM and the TGI [9] was 44.5 µM and > 10 µM. The GI50 [10] was 20.4 µM and > 3.85 µM and the TGI [10] was 41.3 µM and > 9.23 µM.
In the case of N#C/C(=C\c1ccc([N+](=O)[O-])cc1)n1nnc2cc(F)c(F)cc21, the GI50 [1] is reported as 1.89 µM, the TGI [1] is reported as 3.93 µM and the GI50 [2] is reported as 1.93 µM. For the same compound, the TGI [2] was 5.44 µM, the GI50 [3] was 2.65 µM and the TGI [3] was 11.4 µM. The GI50 [4] was 1.87 µM, the TGI [4] was 4.08 µM and the GI50 [5] was 1.72 µM. It also gave a TGI [5] of 4 µM, a GI50 [6] of 2.42 µM and a TGI [6] of 6.67 µM. It also gave a GI50 [7] of 3.13 µM, a TGI [7] of 12.1 µM and a GI50 [8] of 1.08 µM. It also gave a TGI [8] greater than 100 µM, a GI50 [9] of 1.73 µM and a TGI [9] of 3.53 µM. The GI50 [10] was 1.66 µM and the TGI [10] was 3.36 µM.
Compound O=C(NCCNc1nccc(-c2c(-c3ccc(F)cc3)nc3sccn23)n1)Nc1cccc(C(F)(F)F)c1 has a GI50 [1] of 2.57 µM, a TGI [1] of 7.73 µM and a GI50 [2] of 4.22 µM. For the same compound, the TGI [2] was 47.9 µM, the GI50 [3] was 8.17 µM and the TGI [3] was 65.5 µM. For the same compound, the GI50 [4] was 8.73 µM, the TGI [4] was 26.4 µM and the GI50 [5] was 3.93 µM. The TGI [5] was 42.3 µM, the GI50 [6] was 3.52 µM and the TGI [6] was 34 µM. It also gave a GI50 [7] of 12.2 µM, a TGI [7] of 41.1 µM and a GI50 [8] of 5.4 µM. It also gave a TGI [8] of 55.3 µM, a GI50 [9] of 13.6 µM and a TGI [9] of 32 µM. It also gave a GI50 [10] of 4.75 µM and a TGI [10] of 17 µM.
In the case of COC(=O)CC12CC(NC(=O)c3csc([C@@H](C[C@H](C(C)C)N(C)C(=O)[C@@H](NC(=O)[C@H]4CCCCN4C)C(C)C)OC(C)=O)n3)(C1)C2, the GI50 [1] is reported as 0.0027 µM and 0.00684 µM, the TGI [1] is reported as 0.00961 µM and 0.0401 µM and the GI50 [2] is reported as 0.0183 µM and 0.0254 µM. The TGI [2] was greater than 33.3 µM, the GI50 [3] was 0.00396 µM and 0.00902 µM and the TGI [3] was greater than 33.3 µM. The GI50 [4] was 0.0098 µM and 0.0167 µM, the TGI [4] was greater than 33.3 µM and the GI50 [5] was 0.00396 µM and 0.0101 µM. The TGI [5] was greater than 33.3 µM, the GI50 [6] was 0.00351 µM and 0.0129 µM and the TGI [6] was greater than 33.3 µM. The GI50 [7] was 0.0074 µM and 0.0204 µM, the TGI [7] was greater than 33.3 µM and the GI50 [8] was 0.00187 µM and 0.00333 µM. The TGI [8] was greater than 33.3 µM, the GI50 [9] was 0.0035 µM and 0.0102 µM and the TGI [9] was greater than 33.3 µM. For the same compound, the GI50 [10] was 0.00325 µM and 0.00622 µM and the TGI [10] was greater than 33.3 µM.
Work on Nc1nc(N)c2cc(Sc3ccc(Cl)cc3)ccc2n1 yielded a GI50 [1] of 1.28 µM, a TGI [1] of 2.83 µM and a GI50 [2] of 0.491 µM. The TGI [2] was 14.9 µM, the GI50 [3] was 1.72 µM and the TGI [3] was 12.4 µM. For the same compound, the GI50 [4] was 1.38 µM, the TGI [4] was 15.6 µM and the GI50 [5] was 0.592 µM. The TGI [5] was 13.8 µM, the GI50 [6] was 1.95 µM and the TGI [6] was 4.99 µM. For the same compound, the GI50 [7] was 0.898 µM, the TGI [7] was 18 µM and the GI50 [8] was 1.37 µM. The TGI [8] was 5.43 µM, the GI50 [9] was 0.306 µM and the TGI [9] was 1.63 µM. For the same compound, the GI50 [10] was 0.795 µM and the TGI [10] was 14.5 µM.
CC[C@@]1(O)C(=O)OCc2c1cc1n(c2=O)Cc2cc3c(OC)cccc3nc2-1 was tested, and the TGI [1] was 5.25 µM, the TGI [2] was greater than 60 µM and the TGI [3] was greater than 100 µM. The GI50 [4] was 0.0069 µM, the TGI [4] was 0.0775 µM and 0.505 µM and the TGI [5] was greater than 100 µM. The TGI [6] was 1.81 µM, the GI50 [7] was 0.0035 µM and the TGI [7] was 1.01 µM. It also gave a TGI [8] of 1.35 µM, a GI50 [9] of 0.0405 µM and a TGI [9] of 5.65 µM. For the same compound, the GI50 [10] was 0.00262 µM and the TGI [10] was 0.0456 µM and 0.106 µM.
